Measurements as given in patent US12472206B2, “Pharmaceutical composition containing cerium compound as active ingredient” (priority 2020, dated 2025).
Entries after “also recorded” stand apart in the source; their conditions may differ.

How the values were obtained:
[1] = tested on: adenine nephropathy model rats; assay: Animal experiment (2) (Example 7): adenine nephropathy model rats fed with cerium-containing feed, blood analysis; type: in vivo
From the text: Adenine nephropathy model rats were fed with a dispersion (cerium oxide dispersion) that contains cerium(III) ion as a cerium compound containing trivalent cerium, and cerium oxide.
• Rat: Slc:Wistar rat (male) delivered at 12 weeks of age (Japan SLC, Inc.) • Powder feed: AIN-93G powder feed (Funabashi Farm Co., Ltd.) • Feed for laboratory animal: Labo MR Stock (Nosan Corporation) • Adenine: (Tokyo Chemical Industry Co., Ltd.) • Cerium oxide dispersion: Cerium oxide dispersion prepared in [Preparation of Cerium Oxide Dispersion] (aqueous dispersion of cerium oxide with 10.0% by mass cerium oxide, mole ratio of cerium oxide:cerium(III)=9:1 • Cerium(III) chloride: cerium(III) chloride heptahydrate (Nikki Corporation) • Water or hot water: water passed through a water purifier, and boiled in a pot • Mixer for feed preparation: Compact Kitchen Machine MUM4415JP (Bosch GmbH) • Manual sausage maker: sausage machine (COM4SPORT) • Wing blood collection needle for animal experiment: CL-4597 (CLEA Japan, Inc.) [Preparation of Cerium Oxide Dispersion]
A special feed was prepared by modifying step (ii) for preparing the feed for normal group, as described below. […] Approximately 100 mL of hot water was then added evenly.
(§1) A special feed was prepared by modifying steps (i) and (ii) for (2) Feed for Adenine Group, as described below. (i) (Ade+Dispersion (A)): Weighed was 246.1 g of the powder feed, which was then stirred with a kitchen machine. (ii) (Ade+Dispersion (A)): While keeping the feed under stirring, 0.625 g of adenine was added in small portions, the content was stirred with the kitchen machine for 3 minutes, the feed adhered on the wall surface was scraped off, and the content was stirred again for 3 minutes. Next, while keeping the feed under stirring, 32.7 g of cerium oxide dispersion was added in small portions, the content was stirred with the kitchen machine for 3 minutes, the feed adhered on the wall surface was scraped off, and the content was stirred again for 3 minutes. Approximately 70 mL of hot water was then added evenly.
as §1, with “(ii)” for “A special feed was prepared by modifying steps (i) and (ii) for (2) Feed for Adenine Group, as described below. (i) (Ade+Dispersion (A)): Weighed was 246.1 g of the powder feed, which was then stirred with a kitchen machine. (ii)”, “(B)):” for “(A)):”, “98.2” for “32.7”, “12” for “70”
(1) Rats were weighed, and classified into four groups.
FIGS. 12 to 15 illustrate graphs plotting on the ordinates test values of serum creatinine (CRE), blood urea nitrogen (BUN), serum phosphorus (IP), or alanine aminotransferase (ALT) of the blood samples collected at the time of the dissection, and plotting on the abscissae total molar amount of cerium per 100 g of feed.
The effect of cerium(III) chloride was examined with use of the following feeds (4-1) to (4-3), in place of the (3-1) Feed for adenine+cerium oxide dispersion (A) group, and the (3-2) Feed for adenine+cerium oxide dispersion (B) group described in Preparation of Feeds according to Example 7-1. […]

[2] = Phosphorus adsorption experiment, Example 2-3 (particle 1 vs lanthanum carbonate); type: binding; details: one hour
Procedure: Three mmol/L aqueous phosphoric acid solutions with pH 2.5 and pH 7.0 were prepared. The pH was adjusted with Bis-Tris HCl buffer solution and glycine-HCl buffer solution (phosphoric acid, sodium chloride, and glycine from FUJIFILM Wako Pure Chemical Corporation; Bis-Tris from Dojindo Laboratories).
A freely selectable amount of particle 1 was added to each of the aqueous solutions.
Each of these dispersions was kept stirred at 38° C. for one hour in a thermostatic chamber.
Also, a freely selectable amount of a commercially available lanthanum carbonate reagent (from Nikki Corporation) was added in the same way, and each dispersion was kept stirred at 38° C. for one hour in a thermostatic chamber.
Each solution was then centrifuged (10,000×g, 5 min) for solid-liquid separation, and the supernatant was collected.
Phosphoric acid remained in the collected supernatant was evaluated by colorimetry, with use of a commercially available phosphoric acid detection reagent (Trade name: PiBlue Phosphate Assay Kit; POPB-500) that contains molybdenum blue and malachite green.
The reciprocal of the mass of the particle required to entirely adsorb 3 mmol of phosphoric acid was defined as adsorptivity to phosphorus, and was illustrated in FIG. 6.

[3] = tested on: 5/6 nephrectomized model rats; details: 5/6 nephrectomized rats, in feed
Procedure: Slc:Wistar rat, 5/6 nephrectomized
(1) The 5/6 nephrectomized model rats were weighed, and classified into three groups.
(2) Each group was acclimatized with MR stock feed, under ad libitum feeding and ad libitum water drinking. The feeding cage was conditioned at room temperature 22±2° C., under illumination 12 hours a day.
(3) The animals were then bred with the prepared special feed under ad libitum feeding and ad libitum water drinking. The feeding cage was conditioned similarly to the acclimatization period, at room temperature 22±2° C., under illumination 12 hours a day.
(4) On Days 0, 7, 14, 21, and 28, rats were bred in metabolic cages for 24 hours. The animals were fed with Labo MR stock on Day 0, and with the special feed on days thereafter, during which the amounts of feed consumption, water consumption, urine and feces were measured, and the urine and feces were sampled.
(5) The animals were taken out of the metabolic cage and weighed, followed by blood collection with a winged needle. Approximately 400 μL of blood was collected, incubated at room temperature for one hour, and then centrifuged (1,700×g, 20 min) to obtain serum.
(6) On the final Day 28, the animals were fasted throughout the day, and then dissected. […] The collected blood was centrifuged (1,700×g, 20 min) to obtain serum. Liver, kidney, spleen, small intestine, and stomach of the rats that were exsanguinated to death were sampled. The small intestine and stomach were dissected, removed contents, and rinsed twice with PBS. The above sequence of procedures was repeated three times to assign six animals to each group. […]
The above four items were measured with use of Hitachi 7180 automatic analyzer.
ALT was measured only for blood samples collected on the last day.

[4] = adenine nephropathy rats, in feed, blood collected at dissection

SMILES	effects on CRE, BUN and IP relative to the cerium oxide dispersion, per molar amount of cerium ([1]; adenine group normalized at 100)	alanine aminotransferase (ALT) [1, 4]	blood urea nitrogen (BUN) [1, 4]	serum creatinine (CRE) [1, 4]	serum phosphorus (IP) [1, 4]	mass of the particle required to entirely adsorb 3 mmol of phosphoric acid ([2]; pH 2.5, 38° C.)	mass of the particle required to entirely adsorb 3 mmol of phosphoric acid ([2]; pH 7.0, 38° C.)	blood urea nitrogen (BUN) ([3]; Days 0-28)	serum creatinine (CRE) ([3]; Days 0-28)	serum ALT (GPT) level ([3]; blood of the last day)
O.O.O.O.O.O.O.[Ce+3].[Cl-].[Cl-].[Cl-] [cerium chloride, cerium(III) chloride heptahydrate]	4 to 9 times	equivalent to that in the normal group; also recorded: equivalent to the level of the normal group	declines depending on the cerium chloride content (mol) in 100 g of feed; also recorded: decrease as the cerium chloride content in the feed increased	declines depending on the cerium chloride content (mol) in 100 g of feed; also recorded: decrease as the cerium chloride content in the feed increased	declines depending on the cerium chloride content (mol) in 100 g of feed; also recorded: decrease as the cerium chloride content in the feed increased					
O=C([O-])[O-].O=C([O-])[O-].O=C([O-])[O-].[La+3].[La+3] [lanthanum carbonate]						1.15 g	5.95 g	slightly increase as compared with the cerium oxide-added groups	slightly increase as compared with the cerium oxide-added groups	distinctively increased as compared with those of the non-added group
